Laboratory results taken from patent US8476317B2, “N-alkylcarbonyl-amino acid ester compounds and their use for cough and pharyngitis” (priority 2011, dated 2013).
Several values for one entry are separate records, joined by “and”; a condition that tells them apart may be missing. Equal entries are not always repeated.

How the values were obtained:
oral cavity / oropharynx = assay: Cooling in oral cavity after application on dorsal surface of tongue; format: in vivo, human; details: dose of 1 to 2 mg, normal subjects
Procedure: The subject is instructed to close and hold the substance in the mouth for at least 10 seconds and not to swallow. The description of sensations is then recorded at 5 to 10 minute intervals.
The compounds of Formula 1 are white crystalline solids at room temperatures. These compounds were tested as the pure powder (>95% purity, by HPLC analysis), or mixed 1:1 with powdered or granulated sugar. The test substances were applied at 2 to 5 mg on the mid-point of the dorsal surface of the tongue using a metal spatula or a plastic applicator. After depositing the test substance on the tongue, the subject was instructed to keep the mouth closed and allow the fluids of the mouth to inter-mix with the test substance and to distribute it to the back of the mouth (oropharynx). The presence and duration of subjective sensations from the mouth was then recorded.

pharyngeal surface = assay: Chili-pepper sauce cough challenge test; format: in vivo, human; set-up: key: If there is no attenuation of the challenge stimuli, the score is 0; if there is partial inhibition, the score is +; if there is complete attenuation of the cough signal, the score is ++; details: challenge 45 to 50 min after ODT containing 2 mg of test substance
Source text: A number of cough challenge methods have been devised for evoking the cough reflex (Morice et al. Briti. J. Clin. Pharmacol. 52: 365-375, 2001). Usually, citric acid or capsaicin is delivered via the inhalation route to volunteers and the number of coughs counted. […] The chili pepper sauce used here is called Yank Sing® Chili Pepper Sauce (YS Gourmet Productions, Inc., PO Box 26189, San Francisco, Calif. 94126) and is a well-known condiment for use with dim sum (Chinese tea lunch). The sensations associated with the chili pepper sauce are located in the back of the mouth and are clearly recognized and associated with a desire to clear the throat. […] To test for anti-cough activity the ODT with the test substance is first administered onto the dorsal surface of the tongue and 45 to 50 min afterwards the chili-pepper sauce test is administered. If there is no attenuation of the challenge stimuli, the score is 0, if there is partial inhibition, the score is +, and if there is complete attenuation of the cough signal, the score is ++. In the presence of an ODT that results in a ++ score, the irritative signals are completely absent, yet the salty taste used in the soy sauce of the condiment can still be easily tasted. The test substances in the ODT that produced a ++ score were then identified and further tested for effectiveness in the treatment of cough.

TRP-M8 = target: T1, TRP-M8 (Homo sapiens, UniProt Q7Z2W7); assay: TRP-M8 receptor assay; format: cell-based; details: for EC50: data from Prof. D. Bautista's laboratory
T1 construct: expressed in transfected cells
T1 sequence (Q7Z2W7 whole entry, species assumed): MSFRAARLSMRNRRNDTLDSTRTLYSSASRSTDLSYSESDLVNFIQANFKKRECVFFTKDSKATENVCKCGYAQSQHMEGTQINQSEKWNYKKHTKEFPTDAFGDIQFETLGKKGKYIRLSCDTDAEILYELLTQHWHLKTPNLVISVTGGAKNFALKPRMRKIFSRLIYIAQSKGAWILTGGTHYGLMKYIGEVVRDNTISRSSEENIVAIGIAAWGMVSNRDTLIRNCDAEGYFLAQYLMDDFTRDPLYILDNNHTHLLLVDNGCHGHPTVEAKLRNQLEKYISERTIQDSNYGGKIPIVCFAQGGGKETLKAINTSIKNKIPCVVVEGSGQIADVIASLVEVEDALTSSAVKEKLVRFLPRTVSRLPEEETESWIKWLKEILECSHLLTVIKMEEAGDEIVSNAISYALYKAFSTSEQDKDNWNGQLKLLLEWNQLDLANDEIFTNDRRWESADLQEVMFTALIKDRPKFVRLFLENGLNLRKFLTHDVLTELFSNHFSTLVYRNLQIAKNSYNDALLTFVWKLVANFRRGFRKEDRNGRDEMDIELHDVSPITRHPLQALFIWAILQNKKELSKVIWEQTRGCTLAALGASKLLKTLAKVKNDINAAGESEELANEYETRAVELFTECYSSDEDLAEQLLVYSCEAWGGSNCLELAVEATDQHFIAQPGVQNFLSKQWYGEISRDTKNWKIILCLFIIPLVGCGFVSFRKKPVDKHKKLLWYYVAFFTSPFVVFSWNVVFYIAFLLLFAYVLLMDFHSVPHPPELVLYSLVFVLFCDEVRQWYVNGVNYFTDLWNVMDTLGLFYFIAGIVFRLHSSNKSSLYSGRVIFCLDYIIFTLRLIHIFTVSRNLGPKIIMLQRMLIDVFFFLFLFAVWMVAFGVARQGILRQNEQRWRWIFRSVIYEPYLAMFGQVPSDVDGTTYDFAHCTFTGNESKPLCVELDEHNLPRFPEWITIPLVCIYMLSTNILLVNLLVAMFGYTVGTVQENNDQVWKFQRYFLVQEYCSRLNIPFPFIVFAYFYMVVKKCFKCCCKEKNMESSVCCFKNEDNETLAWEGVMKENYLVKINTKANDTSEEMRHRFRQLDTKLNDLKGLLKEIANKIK
Source text: Psychic events such as refreshment, soothing, cooling, irritation, itch, and pain cannot be verbalized by animals (animals cannot say “it feels cold”, “ouch”, or that “it itches”). […] Receptor assays, based on cells transfected with the genes for proteins associated with thermosensation (e.g., TRP-M8, TRP-A1, TRP-V1) may be used as a model of sensory processes and provide quantitative data. […] The in vitro assay gives no information on onset and offset of action, but yields information on comparative potency of the two enantiomers. Further evaluation of the pharmacological properties of the test substances were based on direct tests in human subjects.
Thus, the D-configuration of the α-carbon of Ala is an absolute requirement for therapeutic utility in cough. This separation of activity between the D- and L-enantiomers was also apparent in the TRP-M8 receptor assay (data from Prof. D. Bautista's laboratory at the University of California at Berkeley). […] Thus, in an equal mixture (racemic) of D-Ala and L-Ala enantiomers, it is likely that ˜97% of the anti-cough activity would be contributed by the D-enantiomer (of Formula 1).

Compound	duration of cooling sensations on the tongue (oral cavity / oropharynx)	Chili-Pepper Sauce Test (pharyngeal surface)	difference of EC50, D-Ala-OEt versus L-Ala-OEt (TRP-M8; TRP-M8 receptor assay)	EC50 (TRP-M8)
CCOC(=O)[C@@H](C)NC(=O)[C@@H]1C[C@H](C)CC[C@H]1C(C)C [D-Ala-OEt, (R)-2-[((1R,2S,5R)-2-isopropyl-5-methyl-cyclohexanecarbonyl)-amino]-propionic acid ethyl ester]	about 30 minutes	++	37 fold	480 nM and 500 nM
CCOC(=O)C(C)NC(=O)[C@@H]1C[C@H](C)CC[C@H]1C(C)C (stereo partly drawn) [L-Ala-OEt]	–	0	–	18000 nM
COC(=O)[C@@H](C)NC(=O)[C@@H]1C[C@H](C)CC[C@H]1C(C)C [D-Ala-OMe, (R)-2-[((1R,2S,5R)-2-isopropyl-5-methyl-cyclohexanecarbonyl)-amino]-propionic acid methyl ester]	about 30 minutes	++	–	–
